Data on 25 compounds can be found in patent US12492173B2, “Herbicidal substituted N-tetrazolyl aryl carboxamides” (Bayer Aktiengesellschaft, priority 2019, dated 2025).

Type in all cases: in vivo
In assay [1] the test system is Veronica persica. Kind of assay: Pre-emergence herbicidal action, VERPE. Also noted: key to Herbicidal action against VERPE: % activity: 100 = plants have died, 0 = like control plants. The conditions noted are these: for herbicidal action VERPE / herbicidal activity VERPE: dosage 320 g/ha; for herbicidal activity VERPE: scored visually after 3 weeks vs untreated controls (100% = plants have died). The essentials:
(§1)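 Pre-emergence soil spray over sandy loam-covered seeds; greenhouse 3 weeks; % visual damage (0% = control, 100% = dead).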

Assay [2] deals with Matricaria inodora. Kind of assay: Pre-emergence herbicidal action, MATIN. The conditions noted are these: for herbicidal action MATIN / herbicidal activity MATIN: dosage 320 g/ha; for herbicidal activity MATIN: scored visually after 3 weeks vs untreated controls (100% = plants have died). Also on record: key to Herbicidal action against MATIN: % activity: 100 = plants have died, 0 = like control plants. The gist of the method: as §1

For assay [3], the system named is Viola tricolor. Description: Post-emergence herbicidal action, VIOTR. Also noted: key: % herbicidal action vs untreated; 100 = plants died, 0 = like control. The gist of the method: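 After sowing into sandy loam, plants grew 2 to 3 weeks under greenhouse conditions until one leaf, then got a spray of compound as aqueous suspension or emulsion. Roughly three weeks on, activity was estimated visually against untreated pots.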

Assay [4] relates to Cyperus esculentus. Kind of assay: Post-emergence herbicidal action, CYPES. Also noted: key: % herbicidal action vs untreated; 100 = plants died, 0 = like control. The conditions noted are these: for Herbicidal action against CYPES: comparative experiment. The method, then: [table] 2. Post-Emergence Herbicidal Action Against Harmful Plants Seeds of monocotyledonous and dicotyledonous weed and crop plants are laid out in sandy loam soil in wood-fiber pots, covered with soil and cultivated in a greenhouse under good growth conditions. 2 to 3 weeks after sowing, the test plants are treated at the one-leaf stage. The compounds of the invention, formulated in the form of wettable powders (WP) or as emulsion concentrates (EC), are then sprayed onto the green parts of the plants in the form of an aqueous suspension or emulsion at a water application rate equating to 600 to 800 l/ha, with addition of 0.2% wetting agent. After the test plants have been left to stand in the greenhouse under optimal growth conditions for about 3 weeks, the action of the preparations is assessed visually in comparison to untreated controls (herbicidal action in percent (%): 100% activity=the plants have died, 0% activity=like control plants). […] The tables below illustrate, in an exemplary manner, the post-emergence herbicidal action of the compounds according to the invention, the herbicidal activity being stated in percent. In the experiments that follow, herbicidal action of numerous inventive compounds and the known compounds that are structurally closest from D1 (WO 2012/028579 A1) and D2 (WO 2018/202535 A1) were compared under the above-specified conditions by the pre-emergence and post-emergence method. The example numbers given in the tables relate to the compounds disclosed in the respective documents. In addition to the compounds disclosed in D1 and D2, the following compounds V-1 to V-14 that are encompassed by D1 or D2 but are not compounds specified therein were used in the comparative experiments: • V-1: 2-(methylsulfanyl)-3-(methylsulfinyl)-N-(1-methyl-1H-tetrazol-5-yl)-4-(trifluoromethyl)benzamide • V-2: 2-(methylsulfanyl)-3-(methylsulfonyl)-N-(1-methyl-1H-tetrazol-5-yl)-4-(trifluoromethyl)benzamide • V-3: 2,3-bis(ethylsulfanyl)-N-(1-methyl-1H-tetrazol-5-yl)-4-(trifluoromethyl)benzamide • V-4: 2-chloro-3-(ethylsulfanyl)-N-(1-methyl-1H-tetrazol-5-yl)-4-(trifluoromethyl)benzamide • V-5: 2-chloro-4-iodo-3-(methylsulfanyl)-N-(1-methyl-1H-tetrazol-5-yl)benzamide • V-6: 2-chloro-4-iodo-3-(methylsulfinyl)-N-(1-methyl-1H-tetrazol-5-yl)benzamide • V-7: 2-chloro-4-iodo-3-(methylsulfonyl)-N-(1-methyl-1H-tetrazol-5-yl)benzamide • V-8: 2-bromo-3-(methylsulfanyl)-N-(1-methyl-1H-tetrazol-5-yl)-4-(trifluoromethyl)benzamide • V-9: 2-bromo-3-(methylsulfinyl)-N-(1-methyl-1H-tetrazol-5-yl)-4-(trifluoromethyl)benzamide • V-10: 2-bromo-3-(methylsulfonyl)-N-(1-methyl-1H-tetrazol-5-yl)-4-(trifluoromethyl)benzamide • V-11: 2-bromo-3-(ethylsulfanyl)-N-(1-methyl-1H-tetrazol-5-yl)-4-(trifluoromethyl)benzamide • V-12: 2-bromo-3-(ethylsulfinyl)-N-(1-methyl-1H-tetrazol-5-yl)-4-(trifluoromethyl)benzamide • V-13: 2-bromo-3-(ethylsulfonyl)-N-(1-methyl-1-1H-tetrazol-5-yl)-4-(trifluoromethyl)benzamide • V-14: 2-cyclopropyl-3-(ethylsulfanyl)-N-(1-methyl-1H-tetrazol-5-yl)-4-(trifluoromethyl)benzamide Herbicidal Pre-Emergence Action: […]

Setting [5] is: comparative experiment, 80 g of a.i./ha.

Each structure is given as a SMILES string.

For `CCS(=O)(=O)c1c(C(F)(F)F)ccc(C(=O)Nc2nnnn2C)c1Br` [Example V-13, 2-bromo-3-(ethylsulfonyl)-N-(1-methyl-1-1H-tetrazol-5-yl)-4-(trifluoromethyl)benzamide, reference compound], the “Herbicidal action against VERPE” value in assay [1] (setting [5]) came out at 0. Further, the “Herbicidal action against MATIN” value in assay [2] (setting [5]) is recorded as 0. For the same compound, the “Herbicidal action against VIOTR” value in assay [3] (comparative experiment, post-emergence, 20 g of a.i./ha) was found to be 0. Also, the “Herbicidal action against CYPES” value in assay [4] (post-emergence, 20 g of a.i./ha) worked out at 0.

For `CCn1nnnc1NC(=O)c1ccc(Cl)c(CSC)c1Cl` [Example 2-559], the “herbicidal action VERPE” value in assay [1] was determined as 100%. Besides, the “herbicidal action MATIN” value in assay [2] turned out to be 90%. The “herbicidal action VIOTR” value in assay [3] (Dosage 80 g/ha) came to 100.

On to `Cc1c(C(=O)Nc2nnnn2C)ccc(C(F)F)c1C[S+](C)[O-]` (stereo not drawn) [Example 1-108], for which the “herbicidal action VERPE” value in assay [1] was 90%. Further, in assay [2], the “herbicidal action MATIN” value came out at 90%. Further, the “herbicidal action VIOTR” value in assay [3] (Dosage 80 g/ha) was 100.

Take `COc1c(C(=O)Nc2nnnn2C)ccc(C(F)(F)F)c1C[S+](C)[O-]` (stereo not drawn) [Example 1-135]: the “herbicidal action VERPE” value in assay [1] came out at 100%. For the same compound, the “herbicidal action MATIN” value in assay [2] was found to be 90%. Further, the “herbicidal action VIOTR” value in assay [3] (Dosage 80 g/ha) is 90.

For the compound `CCn1nnnc1NC(=O)c1ccc(C(F)F)c(C[S+](C)[O-])c1C` (stereo not drawn) [Example 2-108], the “herbicidal action VERPE” value in assay [1] was found to be 100%. Besides, in assay [2], the “herbicidal action MATIN” value was determined as 100%. Moreover, the “herbicidal action VIOTR” value in assay [3] (Dosage 80 g/ha) was 100.

Turning to `CCCn1nnnc1NC(=O)c1ccc(S(C)(=O)=O)c(CS(C)(=O)=O)c1C` [Example 3-39], the “herbicidal action VERPE” value in assay [1] is on record as 100%. Moreover, in assay [2], the “herbicidal action MATIN” value worked out at 100%. Besides, the “herbicidal action VIOTR” value in assay [3] (Dosage 80 g/ha) is 100.

With `Cc1ccc(C(=O)Nc2nnnn2C)c(Cl)c1C[S+](C)[O-]` (racemic) [Example 1-288], the “herbicidal action VERPE” value in assay [1] was 90%. For the same compound, the “herbicidal action MATIN” value in assay [2] is recorded as 100%. In addition, the “herbicidal action VIOTR” value in assay [3] (Dosage 80 g/ha) was 100. In addition, the “herbicidal action CYPES” value in assay [4] (Dosage 80 g/ha) was found to be 90.

On to `CSCc1c(C(F)F)ccc(C(=O)Nc2nnnn2C)c1Cl` [Example 1-320], for which, in assay [1], the “herbicidal activity VERPE” value is 100%. In addition, in assay [2], the “herbicidal activity MATIN” value was 100%. Further, the “herbicidal action VIOTR” value in assay [3] (Dosage 80 g/ha) is 100. In addition, the “herbicidal action CYPES” value in assay [4] (Dosage 80 g/ha) is on record as 80.

On to `CCn1nnnc1NC(=O)c1ccc(S(C)(=O)=O)c(CS(C)(=O)=O)c1Cl` [Example 2-280], for which, in assay [1], the “herbicidal action VERPE” value was determined as 100%. For the same compound, in assay [2], the “herbicidal action MATIN” value was found to be 90%. Also, in assay [3] (post-emergence, dosage 80 g/ha), the “Herbicidal action against VIOTR” value amounted to 90.

Regarding `CCS(=O)(=O)Cc1c(C(F)(F)F)ccc(C(=O)Nc2nnnn2C)c1C` [Example 1-88], the “herbicidal action VERPE” value in assay [1] worked out at 100%. Also, in assay [2], the “herbicidal action MATIN” value is on record as 100%. Besides, in assay [3] (Dosage 80 g/ha), the “herbicidal action VIOTR” value stood at 100.

On to `CCCn1nnnc1NC(=O)c1ccc(C(F)(F)F)c(C[S+](C)[O-])c1OC` (stereo not drawn) [Example 3-135], for which the “herbicidal action MATIN” value in assay [2] is 100%. The “herbicidal action VIOTR” value in assay [3] (Dosage 80 g/ha) was 100.

With `CCn1nnnc1NC(=O)c1ccc(C(F)F)c(C[S+](C)[O-])c1SC` (stereo not drawn) [Example 2-171], in assay [1], the “herbicidal activity VERPE” value is on record as 100%. Also, in assay [2], the “herbicidal activity MATIN” value stood at 100%. In assay [3] (Dosage 80 g/ha), the “herbicidal action VIOTR” value was 100.

Regarding `CCn1nnnc1NC(=O)c1ccc(C(F)(F)F)c(CS(=O)(=O)CC)c1C` [Example 2-88], the “herbicidal action VERPE” value in assay [1] is given as 100%. Also, in assay [2], the “herbicidal action MATIN” value was determined as 100%. Also, the “herbicidal action VIOTR” value in assay [3] (Dosage 80 g/ha) is 100.

`CCSCc1c(C(F)(F)F)ccc(C(=O)Nc2nnnn2CC)c1C` [Example 2-86]: the “herbicidal action VERPE” value in assay [1] is listed as 100%. In addition, the “herbicidal action MATIN” value in assay [2] was determined as 100%. Further, the “herbicidal action VIOTR” value in assay [3] (post-emergence, dosage 80 g/ha) came to 100%. In assay [4] (post-emergence, dosage 80 g/ha), the “herbicidal action CYPES” value stood at 80%.

For `CCCn1nnnc1NC(=O)c1ccc(S(C)(=O)=O)c(CSC)c1C` [Example 3-37], in assay [1], the “herbicidal action VERPE” value is given as 100%. In addition, the “herbicidal action MATIN” value in assay [2] was determined as 90%. Also, the “herbicidal action VIOTR” value in assay [3] (Dosage 80 g/ha) worked out at 100.

On to `CCCn1nnnc1NC(=O)c1ccc(C(F)(F)F)c(CS(=O)(=O)CC)c1Cl` [Example 3-301], for which, in assay [1], the “herbicidal action VERPE” value stood at 100%. Besides, the “herbicidal action MATIN” value in assay [2] was 100%. In addition, the “herbicidal action VIOTR” value in assay [3] (Dosage 80 g/ha) is recorded as 100.

As for `CCCn1nnnc1NC(=O)c1ccc(C(F)(F)F)c(CSCC(F)(F)F)c1Cl` [Example 3-311], the “herbicidal action VERPE” value in assay [1] is recorded as 100%. For the same compound, the “herbicidal action MATIN” value in assay [2] came out at 100%. Moreover, the “herbicidal action VIOTR” value in assay [3] (Dosage 80 g/ha) turned out to be 90.

With `CCCn1nnnc1NC(=O)c1ccc(C(F)(F)F)c(CS(C)(=O)=O)c1Br` [Example 3-382], in assay [1], the “herbicidal action VERPE” value is 100%. For the same compound, the “herbicidal action MATIN” value in assay [2] is listed as 100%. Also, the “herbicidal action VIOTR” value in assay [3] (Dosage 80 g/ha) is 90. The “herbicidal action CYPES” value in assay [4] (Dosage 80 g/ha) is reported as 80.

As to `CCCn1nnnc1NC(=O)c1ccc(C(F)F)c(CSC)c1SC` [Example 3-170], in assay [1], the “herbicidal activity VERPE” value is 100%. Further, the “herbicidal activity MATIN” value in assay [2] turned out to be 100%. In assay [3] (Dosage 80 g/ha), the “herbicidal action VIOTR” value is 100.

As to `CCCn1nnnc1NC(=O)c1ccc(C(F)(F)F)c(CSCC)c1C` [Example 3-86], in assay [1], the “herbicidal action VERPE” value was found to be 100%. Further, the “herbicidal action MATIN” value in assay [2] worked out at 100%. The “herbicidal action VIOTR” value in assay [3] (Dosage 80 g/ha) was 100.

As to `CCn1nnnc1NC(=O)c1ccc(C(F)(F)F)c(CS(=O)(=O)CC)c1Cl` [Example 2-301], in assay [1], the “herbicidal action VERPE” value was determined as 100%. The “herbicidal action MATIN” value in assay [2] was 100%. In addition, the “herbicidal action VIOTR” value in assay [3] (Dosage 80 g/ha) came to 100.

Turning to `CSCc1c(Cl)ccc(C(=O)Nc2nnnn2C)c1Cl` [Example 1-559], the “herbicidal action VERPE” value in assay [1] came out at 90%. Further, the “herbicidal action MATIN” value in assay [2] is recorded as 90%. In addition, the “herbicidal action VIOTR” value in assay [3] (post-emergence, dosage 80 g/ha) was found to be 100%. Further, the “herbicidal action CYPES” value in assay [4] (post-emergence, dosage 80 g/ha) was determined as 90%.

Consider `CSCc1c(C)ccc(C(=O)Nc2nnnn2C)c1Cl` [Example 1-287], for which, in assay [1], the “herbicidal action VERPE” value is 100%. Further, in assay [2], the “herbicidal action MATIN” value was found to be 90%. Moreover, the “herbicidal action VIOTR” value in assay [3] (Dosage 80 g/ha) is reported as 100.

Take `CCCn1nnnc1NC(=O)c1ccc(C(F)(F)F)c(CSC)c1SC` [Example 3-161]: the “herbicidal action VERPE” value in assay [1] came out at 100%. Besides, in assay [2], the “herbicidal action MATIN” value is listed as 100%. Moreover, the “herbicidal action VIOTR” value in assay [3] (Dosage 80 g/ha) is reported as 100.

For the compound `COc1c(C(=O)Nc2nnnn2C)ccc(Cl)c1CSC` [Example 1-570], in assay [1], the “herbicidal action VERPE” value is reported as 80%. The “herbicidal action MATIN” value in assay [2] came to 100%. In assay [3] (comparative experiment, post-emergence, 5 g of a.i./ha), the “Herbicidal action against VIOTR” value is 60. The “Herbicidal action against CYPES” value in assay [4] (post-emergence, 5 g of a.i./ha) came to 60.
